Like-named read-outs stand apart in the source and are kept apart here.
How the values were obtained:
[1] = system: day 7 placental organoids; assay: Drug toxicity response, CellTiter-Glo luminescent cell viability, day 7 placental organoids; details: Homo sapiens, read-out: IC50 (drug toxicity based on cell survival)
Source text: It is well-established that ethical constraints hamper the testing of drugs on pregnant women. Furthermore, maternal drug usage is known to promote a range of conditions, such as fetal drug tolerance, antibiotic resistance, toxicity, obesity and diabetes. While it is rendered safe to use certain drugs during pregnancy, the actual short as well as long-term effects of these drugs on fetal health cannot be currently studied. Therefore, as an application of the placental organoids systems in drug toxicity testing, these organoids were treated with commonly used compounds such as nicotine, acetaminophen, ibuprofen and lumiracoxib. […] Acetaminophen, also known as paracetamol, is usually considered as a safe antipyretic and analgesic medicine for pregnant women. However, acetaminophen and its metabolites easily cross the placenta and are potentially toxic as it has previously been detected in the fetus and is implicated in adverse birth and later life health outcomes. Nonsteroidal anti-inflammatory drugs (NSAIDs) such as Ibuprofen are the most commonly used medications for the treatment of pain, inflammation and fever during pregnancy. Ibuprofen readily enters fetal circulation, raising concerns about its long-term effects on fetal health and development. While the use of another NSAID, Lumiracoxib, has not been adequately investigated. […] Therefore, it has been recommended that it should not be used during the first two trimesters of pregnancy unless it justifies the potential risk to the fetus. Day 7and day 15 placental organoids were treated with increasing doses of drugs such as nicotine, acetaminophen, ibuprofen and lumiracoxib. The drug toxicity and IC50 value of the drugs was determined based on cell survival at 24 and 48 hours post drug exposure.
Placental organoids (12-15 organoids/well) were treated with different concentrations of nicotine (0.1, 0.5, 1, 5, 10, 20 mg/mL), acetaminophen (0.01, 0.1, 1, 5, 10, 20 mM), ibuprofen (25, 50, 100, 200, 400, 800 mg/mL) and lumiracoxib (0.01, 0.1, 1, 5, 10, 20 mM) for 24 and 48 hours to determine the IC50 value for drug toxicity. Post-incubation with the drugs for 24 and 48 hours respectively, the cell viability was determined using a CellTiter-Glo Luminescent cell viability assay (Promega #G7570). Briefly, cell supernatant was mixed with equal volume of CellTiter-Glo reagent for 2 minutes on an orbital shaker, incubated for 10 minutes in dark at room temperature and then the luminescence was determined using a Tecan plate reader (Tecan Spark).

[2] = crosses the placental barrier; cited from earlier work

SMILES	IC50 ([1]; 24 hours post drug exposure)	IC50 ([1]; 48 hours post drug exposure)	fetal concentration higher than mother [2] [%]
CC(=O)Nc1ccc(O)cc1 [acetaminophen]	2680 µM	1110 µM	–
CC(C)Cc1ccc(C(C)C(=O)O)cc1 (centres unmarked) [ibuprofen]	–	45300 µg/mL	–
Cc1ccc(Nc2c(F)cccc2Cl)c(CC(=O)O)c1 [lumiracoxib]	841 µM	220 µM	–
CN1CCCC1c1cccnc1 (centres unmarked) [nicotine]	5700 µg/mL	1190 µg/mL	15

Reference: US20250271419A1, “PLACENTA ORGANOID ON-A-CHIP AND USE THEREOF” (THE REGENTS OF THE UNIVERSITY OF CALIFORNIA, priority 2024, published 2025)
